Experiment: Safety and tolerability, treatment-emergent adverse events (Example 1)
Assay type: in vivo, human
Conditions: for Any TEAE, subjects (%): 9 subjects
Description: As used herein, the term “Adverse Event” refers to any event, side-effect, or other untoward medical occurrence in a subject (i.e., a clinical study participant) administered a pharmaceutical product. […] As used herein, a “treatment-emergent adverse event” or “TEAE” refers to an adverse event not present prior to treatment (i.e., receiving a dose of Compound 1) or an already present event that worsens in intensity or frequency following treatment. TEAEs may be classified by system organ class (SOC); an exemplary SOC is Nervous System Disorders. Examples of Nervous System Disorder TEAEs include somnolence, headache, dizziness, lethargy, balance disorder, and cognitive disorder.
A three-part study to assess the safety, tolerability, and PK/PD properties of Compound 1 in humans was performed. Part 1 was a randomized, double-blinded, placebo-controlled, single ascending dose (SAD) phase. Part 2 was a randomized, open-label phase to assess the effect of food on Compound 1. Part 3 was a randomized, double-blinded, placebo-controlled multiple-ascending dose phase.
Part 1 Primary Objectives: to evaluate the safety and tolerability of single oral doses of Compound 1 and to determine the maximum tolerated dose (MTD) following ascending single oral doses of Compound 1. Part 1 Primary Endpoints: incidence, severity, and duration of treatment-emergent adverse events (TEAEs), serious adverse events (SAEs), and incidence of clinically significant vital signs, pulse oximetry, ECGs, safety laboratory, or physical examination findings and MTD of Compound 1 in healthy subjects.
The safety, tolerability, and PK of Compound 1 administered as multiple doses (up to 7 days) was determined. Subjects in cohorts 4-6 were administered Compound 1 once daily in the morning (QAM) in a fed state. Subjects in cohorts 7-8 were administered Compound 1 once daily in the evening (QHS) in a fed state.
Part 3 Primary Objective: to evaluate the safety and tolerability of multiple oral doses of Compound 1 and to determine the maximum tolerated dose of Compound 1 following multiple oral doses. Part 3 Primary Endpoints: incidence, severity, and duration of treatment-emergent adverse events, […], and incidence of clinically significant vital signs, pulse oximetry, ECGs, safety laboratory, or physical examination findings, and the maximum tolerated dose of Compound 1 in healthy subjects.

SMILES: CCCCCCCC(=O)OCC(COC(=O)CCCCCCC)OC(=O)CC(C)CC(=O)OCOC(=O)O[C@@H]1CC[C@@]2(C)[C@@H](CC[C@@H]3[C@@H]2CC[C@]2(C)[C@@H](C(C)=O)CC[C@@H]32)C1 (stereo partly drawn) [Compound 1]
- tolerability across dose levels tested (Example 1, Parts 1-3): generally well tolerated
- TEAE Abnormal Dreams (Psychiatric Disorders), subjects (%) (MAD Cohort 4, 250 mg QAM): 0
- TEAE Balance Disorder (Nervous System Disorders), subjects (%) (MAD Cohort 4, 250 mg QAM): 0
- TEAE Cognitive Disorder (Nervous System Disorders), subjects (%) (MAD Cohort 4, 250 mg QAM): 0
- TEAE Diarrhoea (Gastrointestinal Disorders), subjects (%) (MAD Cohort 4, 250 mg QAM): 0
- TEAE Disturbance in attention (Nervous System Disorders), subjects (%) (MAD Cohort 4, 250 mg QAM): 0
- TEAE Dizziness (Nervous System Disorders), subjects (%) (MAD Cohort 4, 250 mg QAM): 0
- TEAE Euphoric Mood (Psychiatric Disorders), subjects (%) (MAD Cohort 4, 250 mg QAM): 0
- TEAE Fatigue (General Disorders and Administration Site Conditions), subjects (%) (MAD Cohort 4, 250 mg QAM): 0
- TEAE Hallucination, Visual (Psychiatric Disorders), subjects (%) (MAD Cohort 4, 250 mg QAM): 0
- TEAE Headache (Nervous System Disorders), subjects (%) (MAD Cohort 4, 250 mg QAM): 0
- TEAE Lethargy (Nervous System Disorders), subjects (%) (MAD Cohort 4, 250 mg QAM): 0
- TEAE Rhinorrhoea (Respiratory, Thoracic, and Mediastinal Disorders), subjects (%) (MAD Cohort 4, 250 mg QAM): 0
- TEAE Sedation (Nervous System Disorders), subjects (%) (MAD Cohort 4, 250 mg QAM): 0
- TEAE Somnolence (Nervous System Disorders), subjects (%) (MAD Cohort 4, 250 mg QAM): 7 (77.8%)
- Any TEAE, subjects (%) (MAD Cohort 4, 250 mg QAM): 7 (77.8%)
- TEAE Abnormal Dreams (Psychiatric Disorders), subjects (%) (MAD Cohort 5, 375 mg QAM): 1 (11.1%)
- TEAE Balance Disorder (Nervous System Disorders), subjects (%) (MAD Cohort 5, 375 mg QAM): 0
- TEAE Cognitive Disorder (Nervous System Disorders), subjects (%) (MAD Cohort 5, 375 mg QAM): 1 (11.1%)
- TEAE Diarrhoea (Gastrointestinal Disorders), subjects (%) (MAD Cohort 5, 375 mg QAM): 0
- TEAE Disturbance in attention (Nervous System Disorders), subjects (%) (MAD Cohort 5, 375 mg QAM): 0
- TEAE Dizziness (Nervous System Disorders), subjects (%) (MAD Cohort 5, 375 mg QAM): 0
- TEAE Euphoric Mood (Psychiatric Disorders), subjects (%) (MAD Cohort 5, 375 mg QAM): 0
- TEAE Fatigue (General Disorders and Administration Site Conditions), subjects (%) (MAD Cohort 5, 375 mg QAM): 0
- TEAE Hallucination, Visual (Psychiatric Disorders), subjects (%) (MAD Cohort 5, 375 mg QAM): 0
- TEAE Headache (Nervous System Disorders), subjects (%) (MAD Cohort 5, 375 mg QAM): 0
- TEAE Lethargy (Nervous System Disorders), subjects (%) (MAD Cohort 5, 375 mg QAM): 0
- TEAE Rhinorrhoea (Respiratory, Thoracic, and Mediastinal Disorders), subjects (%) (MAD Cohort 5, 375 mg QAM): 0
- TEAE Sedation (Nervous System Disorders), subjects (%) (MAD Cohort 5, 375 mg QAM): 0
- TEAE Somnolence (Nervous System Disorders), subjects (%) (MAD Cohort 5, 375 mg QAM): 6 (66.7%)
- Any TEAE, subjects (%) (MAD Cohort 5, 375 mg QAM): 6 (66.7%)
- TEAE Abnormal Dreams (Psychiatric Disorders), subjects (%) (MAD Cohort 6, 500 mg QAM): 0
- TEAE Balance Disorder (Nervous System Disorders), subjects (%) (MAD Cohort 6, 500 mg QAM): 7 (77.8%)
- TEAE Cognitive Disorder (Nervous System Disorders), subjects (%) (MAD Cohort 6, 500 mg QAM): 4 (44.4%)
- TEAE Diarrhoea (Gastrointestinal Disorders), subjects (%) (MAD Cohort 6, 500 mg QAM): 0
- TEAE Disturbance in attention (Nervous System Disorders), subjects (%) (MAD Cohort 6, 500 mg QAM): 1 (11.1%)
- TEAE Dizziness (Nervous System Disorders), subjects (%) (MAD Cohort 6, 500 mg QAM): 1 (11.1%)
- TEAE Euphoric Mood (Psychiatric Disorders), subjects (%) (MAD Cohort 6, 500 mg QAM): 1 (11.1%)
- TEAE Fatigue (General Disorders and Administration Site Conditions), subjects (%) (MAD Cohort 6, 500 mg QAM): 0
- TEAE Hallucination, Visual (Psychiatric Disorders), subjects (%) (MAD Cohort 6, 500 mg QAM): 1 (11.1%)
- TEAE Headache (Nervous System Disorders), subjects (%) (MAD Cohort 6, 500 mg QAM): 0
- TEAE Lethargy (Nervous System Disorders), subjects (%) (MAD Cohort 6, 500 mg QAM): 1 (11.1%)
- TEAE Rhinorrhoea (Respiratory, Thoracic, and Mediastinal Disorders), subjects (%) (MAD Cohort 6, 500 mg QAM): 0
- TEAE Sedation (Nervous System Disorders), subjects (%) (MAD Cohort 6, 500 mg QAM): 0
- TEAE Somnolence (Nervous System Disorders), subjects (%) (MAD Cohort 6, 500 mg QAM): 9 (100%)
- Any TEAE, subjects (%) (MAD Cohort 6, 500 mg QAM): 9 (100%)
- TEAE Abnormal Dreams (Psychiatric Disorders), subjects (%) (MAD Cohort 7, 375 mg QHS): 0
- TEAE Balance Disorder (Nervous System Disorders), subjects (%) (MAD Cohort 7, 375 mg QHS): 2
- TEAE Cognitive Disorder (Nervous System Disorders), subjects (%) (MAD Cohort 7, 375 mg QHS): 2 (22.2%)
- TEAE Diarrhoea (Gastrointestinal Disorders), subjects (%) (MAD Cohort 7, 375 mg QHS): 1 (11.1%)
- TEAE Disturbance in attention (Nervous System Disorders), subjects (%) (MAD Cohort 7, 375 mg QHS): 1 (11.1%)
- TEAE Dizziness (Nervous System Disorders), subjects (%) (MAD Cohort 7, 375 mg QHS): 1 (11.1%)
- TEAE Euphoric Mood (Psychiatric Disorders), subjects (%) (MAD Cohort 7, 375 mg QHS): 1 (11.1%)
- TEAE Fatigue (General Disorders and Administration Site Conditions), subjects (%) (MAD Cohort 7, 375 mg QHS): 0
- TEAE Hallucination, Visual (Psychiatric Disorders), subjects (%) (MAD Cohort 7, 375 mg QHS): 0
- TEAE Headache (Nervous System Disorders), subjects (%) (MAD Cohort 7, 375 mg QHS): 1 (11.1%)
- TEAE Lethargy (Nervous System Disorders), subjects (%) (MAD Cohort 7, 375 mg QHS): 0
- TEAE Rhinorrhoea (Respiratory, Thoracic, and Mediastinal Disorders), subjects (%) (MAD Cohort 7, 375 mg QHS): 0
- TEAE Sedation (Nervous System Disorders), subjects (%) (MAD Cohort 7, 375 mg QHS): 0
- TEAE Somnolence (Nervous System Disorders), subjects (%) (MAD Cohort 7, 375 mg QHS): 5 (55.6%)
- Any TEAE, subjects (%) (MAD Cohort 7, 375 mg QHS): 6 (66.7%)
- TEAE Abnormal Dreams (Psychiatric Disorders), subjects (%) (MAD Cohort 8, 375 mg QHS): 0
- TEAE Balance Disorder (Nervous System Disorders), subjects (%) (MAD Cohort 8, 375 mg QHS): 0
- TEAE Cognitive Disorder (Nervous System Disorders), subjects (%) (MAD Cohort 8, 375 mg QHS): 0
- TEAE Diarrhoea (Gastrointestinal Disorders), subjects (%) (MAD Cohort 8, 375 mg QHS): 0
- TEAE Disturbance in attention (Nervous System Disorders), subjects (%) (MAD Cohort 8, 375 mg QHS): 0
- TEAE Dizziness (Nervous System Disorders), subjects (%) (MAD Cohort 8, 375 mg QHS): 0
- TEAE Euphoric Mood (Psychiatric Disorders), subjects (%) (MAD Cohort 8, 375 mg QHS): 0
- TEAE Fatigue (General Disorders and Administration Site Conditions), subjects (%) (MAD Cohort 8, 375 mg QHS): 0
- TEAE Hallucination, Visual (Psychiatric Disorders), subjects (%) (MAD Cohort 8, 375 mg QHS): 0
- TEAE Headache (Nervous System Disorders), subjects (%) (MAD Cohort 8, 375 mg QHS): 0
- TEAE Lethargy (Nervous System Disorders), subjects (%) (MAD Cohort 8, 375 mg QHS): 0
- TEAE Rhinorrhoea (Respiratory, Thoracic, and Mediastinal Disorders), subjects (%) (MAD Cohort 8, 375 mg QHS): 0
- TEAE Sedation (Nervous System Disorders), subjects (%) (MAD Cohort 8, 375 mg QHS): 1 (11.1%)
- TEAE Somnolence (Nervous System Disorders), subjects (%) (MAD Cohort 8, 375 mg QHS): 1 (11.1%)
- Any TEAE, subjects (%) (MAD Cohort 8, 375 mg QHS): 2 (22.2%)
- effect of food on safety or tolerability (Part 2, 140 mg): Food did not impact safety or tolerability
- most common adverse event (most frequently at doses greater than or equal to 500 mg): somnolence

Source: patent US20260284079A1, “LIPID PRODRUGS OF ALLOPR[…] USES THEREOF” (Seaport Therapeutics, Inc., priority 2023, published 2026)
